Source: patent publication US6329497A, “Sandramycin analogs” (The Scripps Research Institute, priority 1999, dated 2001)
pIC50: −log10 of the molar value. “Also recorded” adds a separate entry of the source.

How the values were obtained:
5'-d(GCTAGC)2 = assay: Sandramycin binding to deoxyoligonucleotides, fluorescence quenching, 5'-d(GCTAGC)2
Protocol: (§1) Apparent absolute DNA binding constants for 1-22 and related agents including luzopeptin A were obtained by measurement of the fluorescence quenching upon titration addition of calf thymus DNA or the deoxyoligonucleotides 5'-d(GCXXGC)2 where XX=AT, TA, GC, and CG. For each agent, the characteristic fluorescence excitation and emission spectra were recorded in 10 mM Tris-HCl, 75 mM NaCl (pH 7.4) buffer, FIG. 6. For the DNA binding assays which quantitate the fluorescence quenching, excitation outside the absorbance range of DNA was employed and the most intense fluorescence emission at a longer wavelength monitored. For assay of the DNA-induced fluorescence quenching of the agents, a 2 mL buffer solution of Tris-HCl (pH 7.4) and 75 mM NaCl was employed. For titration, small aliquots of DNA were added to solutions of the agents in Tris-HCl buffer (pH 7.4).
(§2) A pronounced downward curvature in an infinite lattice such as calf thymus DNA is recognized to arise in part from neighbor exclusion where the binding of an agent excludes the subsequent binding at nearby sites. […]
(§3) After 5 min of stirring, an initial fluorescence reading was taken with minimum exposure to the excitation beam. […] The results of the titration were analyzed by Scatchard analysis. […]

5'-d(GCGCGC)2 = assay: Sandramycin binding to deoxyoligonucleotides, fluorescence quenching, 5'-d(GCGCGC)2
Protocol: as §1, §2, §3

5'-d(GCCGGC)2 = assay: Sandramycin binding to deoxyoligonucleotides, fluorescence quenching, 5'-d(GCCGGC)2
Protocol: as §1, §2, §3

[1] = molecular target: HIV-1 reverse transcriptase (Human immunodeficiency virus type 1 group M subtype B, UniProt P04585); assay: Inhibition of HIV-1 reverse transcriptase; format: biochemical
Protocol: The assay was performed according to an available procedure (Goldman, M. E.; Salituro, G. S.; Bowen, J. A.; Williamson, J. M.; Zink, D. L.; Schleif, W. A.; Emini, E. A. Mol. Pharmacol. 1990, 38, 20) with slight modification. A 45 L solution of reaction buffer containing 55 mM Tris·HCl, pH 8.2, 80 mM potassium chloride, 12 mM MgCl2, 1 mM DTT, 50 M EGTA, 2.5 g/mL rA·dT, 0.5 Ci of [^3 H]TTP, 10 M TTP, 1 mg/mL BSA, and 0.01% Triton X-100 was added to a well in a filter cluster plate (Millipore MAHV N45). The reverse transcription reaction was initiated upon addition of the reverse transcriptase (1 unit; 1 unit=10 pmol of [^3 H]TMP incorporated/60 min at 37° C.). The plate was incubated at 37° C. for 90 min. The plate was then placed on ice and 200 µL of 13% trichloroacetic acid and 10 mM sodium pyrophosphate was added to each well. The plate was chilled for 2 h and the liquid vacuumed out through the filter using a Millipore manifold (Millipore MAVM 09601). The precipitate was washed with 1 M and 10 mM sodium pyrophosphate twice. The filter was punched out and placed in a scintillation vial. 4 mL of cocktail was added. Radioactivity was determined by liquid scintillation counting.
The effects of sandramycin and its analogs on HIV-1 reverse transcriptase were determined by incubating the agents and the rA·dT containing buffer at 25° C. for 30 min prior to addition of the reverse transcriptase. Reactions containing no agents were used as controls, and those lacking the transcriptase were used as blanks.

five cell lines = assay: In vitro cytotoxic activity of key substructure analogs, five cell lines; format: cell-based
calf thymus DNA = assay: DNA binding constant determination for 23 (ethidium bromide displacement; sandramycin titration)
Protocol: Calf thymus DNA (1.0×10^-5 M in base-pair) was mixed with ethidium bromide (5.0×10^-6 M) resulting in a 2:1 ratio of base-pair:ethidium in a 10 mM Tris-HCl (pH 7.4), 75 mM NaCl buffer solution (2 mL). The fluorescence was calibrated at 24° C. to 100% F and 0% F with a DNA-ethidium buffer solution and ethidium buffer solution, respectively. The premixed DNA-ethidium solution was titrated with small aliquots of 23 (20 to 40 μL of 3 mM […] in DMSO) and incubated at 24° C. for 30 min prior to each fluorescence measurement. The fluorescence was measured with 545 nm excitation and 595 nm emission with a slit width of 10 nm. The absolute binding constant from three such titrations were determined at 50% ethidium bromide displacement as measured by a drop in fluorescence to 50%. The binding constant of ethidium bromide employed to calculate the absolute binding constant with a competitive or noncompetitive binding model^39 was 4.5×10^5 M^-1 and the results are summarized in Table 4.
A 2 mL of sample containing 400 μL of calf thymus DNA (320 μM in base-pair) with or without the presence of 40 μL of 23 (3.2×10^-3 M in DMSO) in 10 mM Tris-HCl (pH 7.4), 75 mM NaCl buffer solution was titrated with small aliquots of sandramycin (1 μL, 1.0×10^-3 M in DMSO). The quenching of fluorescence was measured 5 min after each addition of sandramycin with 360 nm excitation and 530 nm fluorescence.

L1210 cell line = assay: In vitro cytotoxic activity, L1210; format: cell-based
[2] = system: melanomas, carcinomas, and adenocarcinomas; assay: In vitro cytotoxic activity of 4 against tumor cell lines; format: cell-based
leukemia cell lines = details: typical
HL-60 = assay: In vitro cytotoxic activity, HL-60; format: cell-based
[3] = system: two single mutant and one double mutant of HIV-1 reverse transcriptase; details: cited from earlier work

Q: Which “G° relative to 5'-d(GCATGC)2” value (5'-d(GCTAGC)2) does the source give for `CC(C)[C@H]1C(=O)OC[C@H](NC(=O)c2nc3ccccc3cc2O)C(=O)N2CCCC[C@@H]2C(=O)NCC(=O)N(C)CC(=O)N(C)[C@H](C(C)C)C(=O)OC[C@@H](NC(=O)c2nc3ccccc3cc2O)C(=O)N2CCCC[C@@H]2C(=O)NCC(=O)N(C)CC(=O)N1C` [compound 1, Sandramycin] here?
A: 0.6 kcal/mol

Q: And the “G° relative to 5'-d(GCATGC)2” value (5'-d(GCGCGC)2)?
A: 0.3 kcal/mol

Q: What about the “G° relative to 5'-d(GCATGC)2” value (5'-d(GCCGGC)2) of the same compound?
A: 0.6 kcal/mol

Q: What about the “HIV-1 reverse transcriptase inhibition, in words” value [1] of the same compound?
A: slightly more effective than luzopeptin A

Q: And the pIC50 ([1]; range given for both agents)?
A: 6.72 to 6.89

Q: Which results are given for “(N-BOC-D-Ser-Pip-Gly-Sar-NMe-Val)2 (Serine Hydroxyl) Dilactone [compound 23]”?
A: cytotoxic activity, in words (five cell lines; both chromophores removed): inactive; fold less potent than 1 (five cell lines; five cell lines): approx 10^5; G° of binding (calf thymus DNA): -6.0 kcal/mol

Q: Which “cytotoxic potency, fold less potent than 1” value (L1210 cell line) does the source give for `CC(C)[C@H]1C(=O)OC[C@@H](NC(=O)c2ccc3ccccc3n2)C(=O)N2CCCC[C@H]2C(=O)NCC(=O)N(C)CC(=O)N(C)[C@@H](C(C)C)C(=O)OC[C@@H](NC(=O)c2ccc3ccccc3n2)C(=O)N2CCCC[C@H]2C(=O)NCC(=O)N(C)CC(=O)N1C` [compound 4, (N-(Quinol-inyl-2-carbonyl)-D-Ser-Pip-Gly-Sar-NMe-Val)2 (Serine Hydroxyl) Dilactone] here?
A: 10

Q: What about the “rank order of cytotoxic potency” value ([2]; carcinomas and adenocarcinomas) of the same compound?
A: 4>luzopeptin A>sandramycin (1)

Q: And the “rank order of cytotoxic potency” value ([2]; melanomas)?
A: 4=luzopeptin A>sandramycin (1)

Q: And the “fold more potent than sandramycin (luzopeptin A or sandramycin)” value ([2]; melanomas, carcinomas, adenocarcinomas)?
A: 1-10,000

Q: What about the “fold less potent than sandramycin (luzopeptin A or sandramycin)” value (leukemia cell lines) of the same compound?
A: 4-10

Q: And the “cytotoxic potency, in words” value (HL-60)?
A: exceptionally potent; also recorded: unusually potent

Q: What about the “HIV-1 reverse transcriptase inhibition, in words” value [1] of the same compound?
A: Comparable but slightly less potent inhibition

Q: What about the “fold less potent than sandramycin” value [1] of the same compound?
A: 3

Q: For `COc1ccc2nc(C(=O)N[C@@H]3COC(=O)[C@H](C(C)(C)O)N(C)C(=O)CN(C)C(=O)CNC(=O)[C@@H]4[C@@H](OC(=O)[C@@H]5C[C@H]5C)CC=NN4C(=O)[C@H](NC(=O)c4cnc5cc(OC)ccc5n4)COC(=O)[C@H](C(C)(C)O)N(C)C(=O)CN(C)C(=O)CNC(=O)[C@@H]4C(OC(=O)[C@@H]5C[C@H]5C)CC=NN4C3=O)cnc2c1` (some centres unmarked) [quinoxapeptin A], which “relative effectiveness against mutants versus HIV-1 reverse transcriptase” value [3] is on record?
A: 1-3
